#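 Growth conditions: 96-well plates. Treatment: test compound, 48 hours, 5 concentrations. Analysis: linear interpolation between bracketing concentrations; unreached endpoints set to highest concentration. The concentration for 50% growth inhibition is given as GI50. TGI is the concentration that stops growth completely.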
# Key:
# Assay in all cases: NCI tumour cell line growth inhibition, 48 h
# DMS 114 small cell lung = tested on: DMS 114 small cell lung
# EKVX NSCLC = tested on: EKVX NSCLC
# MALME-3M melanoma = tested on: MALME-3M melanoma
# P388 leukemia = tested on: P388 leukemia
# P388/ADR leukemia = tested on: P388/ADR leukemia
# SN12K1 renal = tested on: SN12K1 renal
# LXFL 529 NSCLC = tested on: LXFL 529 NSCLC
# M14 melanoma = tested on: M14 melanoma
# M19-MEL melanoma = tested on: M19-MEL melanoma
# RXF-631 renal = tested on: RXF-631 renal
# BT-549 breast = tested on: BT-549 breast
# MDA-MB-435 = tested on: MDA-MB-435
# MDA-N = tested on: MDA-N
# HS 578T breast = tested on: HS 578T breast
# T-47D breast = tested on: T-47D breast
Compound,TGI (DMS 114 small cell lung),TGI (EKVX NSCLC),TGI (MALME-3M melanoma),TGI (P388 leukemia),TGI (P388/ADR leukemia),TGI (SN12K1 renal),TGI (M14 melanoma),TGI (M19-MEL melanoma),TGI (MDA-MB-435),TGI (MDA-N),TGI (T-47D breast),other results
CC1NC(=O)C(C)C(c2ccccc2)N(N=O)C1c1ccccc1 (centres undefined),> 100 µM,> 100 µM,> 100 µM,> 89.2 µM,> 100 µM,> 100 µM,,,,,,
O=C(CC1Sc2ccccc2NC1=O)Nc1ccccc1[N+](=O)[O-] (centres undefined),,> 100 µM,> 100 µM,,,,> 100 µM,> 100 µM,,,,TGI (LXFL 529 NSCLC): > 100 µM; TGI (RXF-631 renal): > 100 µM
CO[C@](C(=O)OC[C@H]1[C@@H](COC(C)=O)[C@@H]2O[C@H]1c1cc3c(cc12)OCO3)(c1ccccc1)C(F)(F)F,,98.8 µM,> 100 µM,,,,> 100 µM,,> 100 µM,> 100 µM,,TGI (BT-549 breast): > 100 µM
CCOC(=O)c1csc(NC(=O)CN2CCCC2)n1,,> 100 µM,,,,,> 100 µM,,> 100 µM,> 100 µM,> 100 µM,TGI (HS 578T breast): > 100 µM
CCCCCCOc1ccc(/C=N/Nc2cc(C)nc3ccc(Cl)cc23)cc1,,,3.44 µM,,,,3.36 µM,,3.15 µM,,3.97 µM,GI50 (M14 melanoma): 1.71 µM; GI50 (MALME-3M melanoma): 1.91 µM; GI50 (MDA-MB-435): 1.71 µM; GI50 (T-47D breast): 1.98 µM
Cc1ccc(C(=O)OC(C(=O)O)C(OC(=O)c2ccc(C)cc2)C(=O)O)cc1 (centres undefined) (tested in a mixture with another compound),12.9 µM,26.6 µM,12 µM,7.53 µM,11.7 µM,8.41 µM,,15.1 µM,,,,
